The record followed here is ChEMBL document CHEMBL2074112 (Br J Cancer, 1996).

For the data set, the target named is ATP-dependent translocase ABCB1 (Homo sapiens, UniProt P08183). In words: TP_TRANSPORTER: increase in Rhodamine 123 intracellular accumulation (R123: 1.66 uM, Staurosporine: 80 uM) in MCF7/Adr cells. The class given is functional, cell-based. The note with it: nci/adr-res.
Sequence of ATP-dependent translocase ABCB1 (P08183 whole entry): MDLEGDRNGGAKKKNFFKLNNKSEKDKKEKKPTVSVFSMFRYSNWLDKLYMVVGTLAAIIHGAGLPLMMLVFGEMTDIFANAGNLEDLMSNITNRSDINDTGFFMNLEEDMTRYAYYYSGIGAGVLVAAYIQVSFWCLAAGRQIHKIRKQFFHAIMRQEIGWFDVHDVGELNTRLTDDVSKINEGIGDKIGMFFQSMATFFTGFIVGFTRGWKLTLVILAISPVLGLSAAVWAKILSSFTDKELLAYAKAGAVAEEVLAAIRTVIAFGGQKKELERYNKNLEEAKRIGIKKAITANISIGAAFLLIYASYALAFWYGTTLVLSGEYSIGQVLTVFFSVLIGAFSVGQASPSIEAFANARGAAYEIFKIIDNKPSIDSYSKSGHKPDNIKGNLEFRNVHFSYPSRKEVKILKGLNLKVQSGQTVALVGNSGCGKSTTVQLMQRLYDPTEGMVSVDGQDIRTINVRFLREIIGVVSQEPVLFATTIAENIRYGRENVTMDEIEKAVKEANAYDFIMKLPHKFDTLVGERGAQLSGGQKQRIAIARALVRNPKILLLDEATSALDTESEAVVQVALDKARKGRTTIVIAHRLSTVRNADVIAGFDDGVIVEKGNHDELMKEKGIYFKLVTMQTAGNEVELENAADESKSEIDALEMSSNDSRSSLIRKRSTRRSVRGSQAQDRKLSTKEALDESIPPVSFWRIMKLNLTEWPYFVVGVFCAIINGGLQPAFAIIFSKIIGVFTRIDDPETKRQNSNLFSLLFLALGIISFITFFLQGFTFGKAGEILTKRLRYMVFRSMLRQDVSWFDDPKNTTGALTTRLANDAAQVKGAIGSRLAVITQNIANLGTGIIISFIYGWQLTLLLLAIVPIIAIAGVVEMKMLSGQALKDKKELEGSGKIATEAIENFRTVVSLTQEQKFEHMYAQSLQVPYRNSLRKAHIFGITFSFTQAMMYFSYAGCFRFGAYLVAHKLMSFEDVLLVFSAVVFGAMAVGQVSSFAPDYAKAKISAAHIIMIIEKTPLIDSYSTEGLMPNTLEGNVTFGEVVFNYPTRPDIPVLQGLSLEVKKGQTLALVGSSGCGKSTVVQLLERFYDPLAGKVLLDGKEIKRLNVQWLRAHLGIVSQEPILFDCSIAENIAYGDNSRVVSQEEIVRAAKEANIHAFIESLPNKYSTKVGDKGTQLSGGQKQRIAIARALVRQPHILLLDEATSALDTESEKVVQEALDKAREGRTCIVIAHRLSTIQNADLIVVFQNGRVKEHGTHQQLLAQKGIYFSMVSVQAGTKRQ

`CN[C@@H]1C[C@H]2O[C@@](C)([C@@H]1OC)n1c3ccccc3c3c4c(c5c6ccccc6n2c5c31)C(=O)NC4` [STAUROSPORINE]: the Activity amounted to 140%.
